Measured values reported in article PMC11915509, “Small molecule inhibitors of hnRNPA2B1–RNA interactions reveal a predictable sorting of RNA subsets into extracellular vesicles” (Nucleic Acids Research, 2025).

Columns and labels:
[1] = system: EV miR-221 from NSC34 cells; assay: ddPCR of miR-221-3p in NSC34-derived EV-RNA; assay type: cell-based, mouse; details: NSC34-derived EVs, 6 h treatment
Method: EVs were isolated from HEK293T, NSC34, and smNPC-derived motor neurons using nickel-based isolation (NBI) or differential ultracentrifugation (UC). NBI protocol was performed as already described. Briefly, after a first centrifugation step at 2800 × g for 10 min, nickel beads were incubated for 30 min with serum-free media collected from cells in a ratio of 25 μl of beads per ml of medium. After a 2 min centrifugation at 600 g, particles were eluted from the beads by adding 1× elution buffer made of Solution A [16 mM ethylenediaminetetraacetic acid (EDTA), UltraPure, pH 8.0, Thermo Fisher] and Solution B (10 mM NaCl, 225 μM citric acid, Sigma–Aldrich) diluted five times in phosphate-buffered saline (PBS). After 15 min incubation at 28°C in a thermoshaker, the EVs were retrieved by 1-min centrifugation at 1800 × g and subjected to the following characterization. NBI was used to recover polydisperse EVs and include the RNA contribution from these for reverse proteomics experiments. The EV-RNA for reverse proteomics was pooled from three consecutive EV isolation procedures performed on a total of 30 T75 flasks (10 flasks each) of NSC34 cells grown until 80% confluence under standard conditions before washing with PBS and incubating with serum-free medium with glutamine and antibiotics. Differential UC was applied as an alternative EV isolation protocol to confirm the detection of hnRNPA2B1 protein. UC was performed by a SW 32 Ti swinging bucket rotor in an Optima XPN-100 ultracentrifuge (Beckman Coulter, Brea, CA, USA). The cell-conditioned serum-free media, after the first centrifugation step at 2800 × g for 10 min, was put in open-top Ultra-Clear centrifuge tubes (Beckman Coulter-344058) and subjected to 100 000 × g (100 K) UC for 70 min at 4°C under vacuum, with or without an additional step at 10 000 × g (10 K) to first sediment larger particles. Then the supernatant was removed, and the pellet was resuspended in 0.22 μm filtered PBS. Differential UC alone, consisting of 2800 × g for 10 min and 100 000 × g for 70 min, was applied for experiments reported in Fig. 5. […]
RNA from cells was extracted using TRI Reagent® (T9424, Sigma) following the manufacturer’s instructions. Thermo Fisher Nanodrop 2000 Spectrophotometer was used to assess the purity and quantity of extracted RNA. […] The elution was in 10–20 μl of RNase-free water and the RNA profiling and quantification was assessed by Agilent 2100 Bioanalyzer and RNA 6000 Pico Kit (5067-1513). Cell- and EV-RNAs were also analysed with DNF-472 HS RNA (15 nt) Kit (Agilent Technologies, Santa Clara, CA), according to the manufacturer. […] Results were analysed with Agilent ProSize data analysis software, that allows the analysis of RNA size, concentration and quality. […]

[2] = system: hnRNPA2B1 protein association with purine-rich RNA probe; assay: RNA pull-down with biotinylated EXOmotif probe after cell treatment, immunoblotting; assay type: cell-based, mouse; details: NSC34 cells, 6 h, 5 μM compound
Method: To prepare native protein lysates, 1–3 × 10^6 NSC34 cells were lysed in buffer R-Lysis [25 mM HEPES, pH 7.5, 100 mM NaCl, 1× protease inhibitor (Thermo Fisher, 78429)] and subjected to a water-bath sonication (35–40 amplitude, 6–7 cycles of 7 s on and 45 s off). After a centrifugation at 14 000 rpm for 20 min at 4°C, the supernatant was collected and 200 μg were incubated with 5 μl of buffer equilibrated Dynabeads^TM M-280 Streptavidin (Invitrogen, 11205D) for 15 min at 4°C in rotation to perform a pre-clearing step. After the magnetic separation, the pre-cleared lysate was incubated with 10 μl of 100 μM RNA biotinylated probes (or 400 ng of biotinylated EV-RNA) and incubated for 1 h at 4°C in rotation. Then, 5 μl/sample of beads were added and the sample were put again in rotation for 20 min at 4°C. […]
Cells were lysed in lysis buffer [50 mM Tris–HCl, pH 7.4, 150 mM NaCl, 1 mM EDTA, 0.25% NP-40, 0.1% Triton X-100, 0.1% sodium dodecyl sulphate, 1× protease inhibitor (Thermo Fisher, 78429)]. […] The signal was measured with Amersham ECL HRP-Conjugated Antibodies (Cytiva) using BioRad Chemidoc XRS+.

[3] = molecular target: T1, hnRNPA2B1-RNA 114 probe interaction (Homo sapiens, UniProt P22626); assay: AlphaScreen with RNA 114 probe and compounds; assay type: binding; details: 250 nM of compounds, 14 nM RNA 114 probe
T1 construct: purified a human full-length, GST-tagged protein expressed in Escherichia coli cells; made in house; host or cells: E. coli BL21 (DE3)
T1 sequence (P22626 whole entry): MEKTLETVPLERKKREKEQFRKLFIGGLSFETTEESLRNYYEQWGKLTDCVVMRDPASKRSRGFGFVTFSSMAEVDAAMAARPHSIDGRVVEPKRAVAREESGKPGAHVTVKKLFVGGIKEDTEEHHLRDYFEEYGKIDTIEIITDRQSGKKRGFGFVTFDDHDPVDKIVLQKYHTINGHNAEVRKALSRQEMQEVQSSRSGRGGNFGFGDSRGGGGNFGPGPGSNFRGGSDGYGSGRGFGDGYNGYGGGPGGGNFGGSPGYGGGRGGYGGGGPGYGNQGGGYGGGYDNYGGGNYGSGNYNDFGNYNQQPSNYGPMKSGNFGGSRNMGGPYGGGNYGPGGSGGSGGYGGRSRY
Method: The assays were performed in OptiPlate-384-well plates (PerkinElmer, 6007299) in 20 μl final volume. The ligands were diluted in AlphaBuffer [25 mM HEPES, pH 7.4, 100 mM NaCl, 0.01% bovine serum albumin (BSA)] and tested using AlphaScreen GST Detection Kit (PerkinElmer, 6760603C). For the assay optimization, different concentrations of the RNA probes (0–100 nM) were incubated with different concentrations of GST-hnRNPA2B1 (0–60 nM) in the presence of streptavidin Donor beads and anti-GST-Acceptor beads (PerkinElmer) (20 μg/ml final concentration). For the reactions, 4 μl of the RNA probes were first added to the plate, then 16 μl of a mix containing all the other components was added, and the plate was incubated at room temperature for 1 h in the dark.

interference with RNA 114 probe interaction [3]: most effective inhibitors
SMILES: O=C1C=C2CC3(O)COc4c(ccc(O)c4O)C3=C2C=C1O (stereo not drawn) [H, hematein]
vesicular miR-221, copy number normalized on Y3 RNA and DMSO [1]: vesicular depletion | association of hnRNPA2B1 protein with exogenous purine-rich RNA probe [2]: most effective
